What all share (type): in vivo
In assay [1] the test system is mice with OVA-induced allergic asthma. Description: BAL fluid cell counts (Experimental Groups II). The protocol: (§1) Male Balb/c SPF mice (25*2 g, 6-week-old) were purchased from the animal house facilities at the São Paulo School of Medicine (Federal University of São Paulo, Brazil). They were group-housed in a temperature-controlled room at 22° C. with a 12/12-hour light/dark cycle and allowed free access to food and water. The study is in agreement with the Ethical Principles for Animal Research established by the Brazilian College for Animal Experimentation (COBEA). According to the internal laboratory rules, euthanasia is performed if severe distress related to the test agents developed during the experiment. […] The compounds were dissolved in DMSO (Sigma Chemical Co., St. Louis, MO) at concentrations at which the determined dose per animal results from the intraperitoneal administration of 100 μl of solution (1:10 DMSO) and intra-nasal (i.n.) administration of 10 μl/animal (5 μl/nostril) of the solutions. Mice were sensitized with two subcutaneous injections of 0.4 ml of OVA/Al(OH)3, with an interval of 7 days (Sham animals received the Al(OH)3 suspension in PBS with no OVA). Seven days after the second sensitization (i.e., 3rd week), the animals were nebulized twice a week with the 1% OVA solution (Sham and untreated OVA groups were nebulized with PBS) during 20 minutes for the next 2 weeks. Sixty minutes before the challenges (OVA nebulization) and daily during the next 4 weeks, mice were intra-nasally treated (10 μl/animal as 5 μl/nostril) with the respective compounds/vehicle. After Penh evaluation, the mice were anesthetized with inhaled isofluorane (5% v/v in O2) and blood samples were collected from the descending abdominal aorta. The mice were then euthanized by exsanguination (blood samples were collected from each animal for leukocyte cell counting), and bronchoalveolar lavage (BAL) was performed by exposing and cannulating the trachea with a polyethylene tube (1 mm outer diameter) connected to a syringe. The lungs were washed by flushing 300 μL of heparin-containing PBS solution (20 Ul/mL). The retrieved BAL lavage aliquots were obtained, and the same procedure was repeated four additional times. The samples were submitted to centrifugation (1000 g for 10 min) and the cell pellet was resuspended in 200 μL of PBS solution. Total cell counts were determined using a Neubauer chamber, and differential counting was carried out in cytospin (Fanem Mod 2400; São Paulo, Brazil) preparations stained with May-Grünwald dye. Leukocytes were classified based on normal morphological criteria.

The test system is the same in assay [2]. Description: Lung hyperreactivity/Penh function, whole body plethysmography, intra-nasal FB, F, B (Experimental Groups II). Conditions: i.n. daily 2 weeks, all tested doses: FB 0.3, 1.0, 3.0 nmol/animal, vs untreated OVA group.
The subject of assay [3] is OVA-sensitized mice. Conditions: 1 mg/Kg i.p. before each OVA exposure; female Balb/c; vs OVA group; FIG. 10A.
Assay [4] has as its system mice with OVA-induced allergic asthma. Description: Circulating leukocyte cell counts (Experimental Groups II). Conditions: i.n.; FB all tested doses (0.3, 1.0, 3.0 nmol/animal); B and F 3 nmol/animal. Here is the method:
as §1

Assay [5] concerns IgE. Description: Plasma IgE levels in OVA-sensitized mice, ELISA (Experimental Groups I). To be noted: 1 mg/Kg i.p.; vs OVA group; FIG. 10 panel C. Here is the method: Female Balb/c (8-week-old, Charles River, Calco, Italy) were housed in the animal care facility of the Department of Pharmacy of the University of Naples, Italy in a controlled environment (temperature 21±2° C. and humidity 60±10%) and provided with standard rodent chow and water. All animals were allowed to acclimate for four days prior to experiments and were subjected to 12 h light−12 h dark schedule. Experiments were conducted during the light phase. The experimental procedures were approved by the Italian Ministry according to International and National law and policies (EU Directive 2010/63/EU and Italian DL 26/2014 for animal experiments). […] The compounds were dissolved in DMSO (Sigma Chemical Co., St. Louis, MO) at concentrations at which the determined dose per animal results from the intraperitoneal administration of 100 μl of solution (1:10 DMSO) and intra-nasal (i.n.) administration of 10 μl/animal (5 μl/nostril) of the solutions. […] Plasma levels of IgE were measured as index of sensitization. […] Total IgE levels were measured by means of ELISA using matched antibody pairs (BD Biosciences Pharmingen San Jose, CA).
For orientation: ELISA stands for enzyme-linked immunosorbent assay.

The text below walks through data of patent publication US12465614B2, “Budesonide 21-phosphate salts and pharmaceutical compositions containing the same” (GENETIC S.P.A., priority 2020, dated 2025).

“Also recorded” adds a separate entry of the source.

For the compound `CCCC1OC2CC3C4CCC5=CC(=O)C=CC5(C)C4C(O)CC3(C)C2(C(=O)COP(=O)(O)O)O1` (centres unmarked) [B, Budesonide 21-phosphate], the “OVA-induced increase of BAL macrophages” value in assay [1] (3 nmol/animal i.n.) was “abolished the OVA-induced increase of BAL macrophages”. Also, the “total leukocytes in BAL fluid” value in assay [1] (3 nmol/animal i.n., vs untreated OVA group) is on record as “significantly reduced”. Moreover, the “eosinophils in BAL samples” value in assay [1] (i.n., all treatments: FB 0.3, 1.0, 3.0 nmol/animal, F and B 3.0 nmol/animal) is recorded as “significantly controlled”. Also, the “area under the Penh-metacholine concentration curve (AUC)” value in assay [2] (B 3.0 nmol/animal) is recorded as “showed no effect”. Further, the “Penh maximal response Emax to inhaled metacholine” value in assay [2] (F and B 3.0 nmol/animal) is “showed no effect”. In addition, in assay [3], the “bronchial hyperreactivity (increased response of isolated bronchi to carbachol)” value is given as “did not significantly affect the increased response of carbachol”. In addition, the circulating macrophages entry in assay [4] is recorded as “significantly reduced the number of macrophages; also recorded: mild decrease of circulating macrophages”. For the same compound, the “OVA induced increase of IgE plasma levels” value in assay [5] was “significantly reduced OVA induced increase of IgE plasma levels”.
